The text below walks through data of US6673798B2, “PDGF receptor kinase inhibitory compounds, their preparation, purification and pharmaceutical compositions including same” (Yissum Research Development Company of the Hebrew …, priority 1999, dated 2004).

Where two headings read alike, the source gives them in different places. Some results are limits rather than exact numbers.

What is called IC50 is the concentration at which inhibition is half-maximal.

Assay [1] concerns the target PDGF β-receptor (Homo sapiens, UniProt P09619). Briefly: PDGF-induced PDGFR autophosphorylation in intact PAEC cells. Type of assay: cell-based. Also noted: expressed in transfected cells; host or cells: porcine aortic endothelial cells (PAEC), stably transfected. The following applies: intact PAEC cells expressing PDGFR, PDGF-BB stimulated; read-out: IC50 (50% inhibition of phosphorylation) PDGFR. The method, then:
(§1) Effect of tyrphostins on PDGF-induced PDGFR autophosphorylation in intact PAEC cells: PAEC cells, transfected with either PDGFR or KDR, cultivated in Ham's F-12 medium supplemented with 10% fetal calf serum (FCS), were synchronized for 20 hours in a medium containing 0.01% BSA. […] After stimulation, the cells were solubilized in Nonidet P-40 (1%) containing lysis buffer.
The analysis of PDGF β-receptor phosphorylation was performed as follows. Cell lysates were subjected to immunoprecipitation using the PDGF β-receptor specific antiserum R3 [5]. The precipitates were subjected to polyacrylamide (7.5%) gel electrophoresis in presence of sodium dodecyl sulfate (SDS-PAGE) and were thereafter blotted onto a nitrocellulose membrane (Hybond C-EXTRA, Amersham). Phosphorylated proteins were detected by immunoblotting using the horseradish-peroxidase conjugated phosphotyrosine antibodies PY20 and 4G10 (Upstate Biotechnology), followed by application of secondary horseradish-peroxidase conjugated goat-anti-mouse antibody and chemoluminescence-based detection (ECL, Amersham) and autoradiography.
The data in Table 9 presents the differential potencies of the various compounds with respect to PDGFR and KDR, as was performed on intact PAEC cells expressing these receptors (see experimental methods section above).

The target of assay [2] is T1, PDGFβR (Mus musculus, UniProt P05622).
T1 construct: A preparation of purified PDGFR from Swiss 3T3 cell membranes was used; endogenous in cells
T1 sequence (P05622 32-1098): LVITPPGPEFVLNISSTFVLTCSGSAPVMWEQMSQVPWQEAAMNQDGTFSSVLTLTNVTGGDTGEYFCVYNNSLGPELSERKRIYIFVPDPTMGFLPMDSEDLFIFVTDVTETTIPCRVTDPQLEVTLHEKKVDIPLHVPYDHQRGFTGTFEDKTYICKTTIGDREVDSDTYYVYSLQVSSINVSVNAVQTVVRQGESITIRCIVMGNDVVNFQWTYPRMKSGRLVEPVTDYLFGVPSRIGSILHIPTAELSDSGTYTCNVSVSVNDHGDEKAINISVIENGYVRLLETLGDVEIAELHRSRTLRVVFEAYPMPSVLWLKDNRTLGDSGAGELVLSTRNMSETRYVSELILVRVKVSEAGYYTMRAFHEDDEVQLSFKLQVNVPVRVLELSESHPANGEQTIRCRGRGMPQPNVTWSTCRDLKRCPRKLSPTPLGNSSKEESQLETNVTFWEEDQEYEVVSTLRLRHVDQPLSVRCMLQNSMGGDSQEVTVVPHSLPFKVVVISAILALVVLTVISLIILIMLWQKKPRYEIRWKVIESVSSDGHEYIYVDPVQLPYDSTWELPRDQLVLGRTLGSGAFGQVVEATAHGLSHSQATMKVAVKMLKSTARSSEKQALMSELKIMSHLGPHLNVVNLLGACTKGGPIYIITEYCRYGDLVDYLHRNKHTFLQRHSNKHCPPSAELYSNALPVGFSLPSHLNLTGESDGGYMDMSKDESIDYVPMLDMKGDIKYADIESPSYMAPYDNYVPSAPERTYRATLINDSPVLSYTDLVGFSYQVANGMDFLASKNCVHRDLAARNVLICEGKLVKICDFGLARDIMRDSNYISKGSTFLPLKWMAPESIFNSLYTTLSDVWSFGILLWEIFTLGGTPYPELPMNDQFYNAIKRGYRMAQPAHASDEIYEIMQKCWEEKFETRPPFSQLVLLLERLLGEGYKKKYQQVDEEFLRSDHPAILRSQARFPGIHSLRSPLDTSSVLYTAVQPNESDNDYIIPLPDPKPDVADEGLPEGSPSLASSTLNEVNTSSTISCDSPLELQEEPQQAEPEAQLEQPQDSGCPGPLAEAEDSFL
Briefly: PDGFR autophosphorylation, purified receptor from Swiss 3T3 cell membranes (cell free). Type of assay: biochemical. Conditions: for % of Control (percent autokinase activity): isolated PDGFβR; for IC50: isolated PDGFR from Swiss 3T3 cell membranes, read-out: IC50 (50% inhibition of phosphorylation). The method, then:
In vitro effect of tyrphostins on purified PDGFR autophosphroylation: Membranes were prepared from confluent cultures of canine kidney epithelial cells (TRMP) or Swiss 3T3 cells as described. Further purification of the PDGF-βR was performed as described in [23]. Briefly, 2 μl kinase preparation were incubated for 20 minutes on ice in the presence of 2 μg/ml PDGF-BB in 20 μl of 50 mM Hepes (pH 7.4). Kinase reaction was executed for 10 minute on ice with 5 mM MnCl2, 1 mM vanadate, 10 μM [γ-^32P]ATP (2.5 μCi per reaction). The reaction was terminated by addition of 10 μl of a solution containing 6% SDS, 30% β-mercaptoethanol, 40% glycerol, and 0.5 mg/ml bromophenol blue. The samples were heated for 5 minutes at 95° C. and subjected to polyacrylamide gel electrophoresis in the presence of 0.4% SDS, using 7.5% polyacrylamide gels. The gels were stained, dried and subjected to autoradiographic analysis. For quantification of radioactivity in electrophoresis gels, a Phospho-Imager (Molecular Dynamics, Fuji, or Bio-Rad) was used according to the instructions of the manufacturer. To obtain autoradiograms, objects were exposed to X-ray film (Fuji RX or Kodak X-OMAT) with intensifying screens at −70° C.
Inhibition of PDGF-induced tyrosine phosphorylation by tyrphostins in vitro: A preparation of purified PDGFR from Swiss 3T3 cell membranes was used to assess and compare the inhibitory effects of tyrphostin compounds on tyrosine kinase activity. Various concentrations of the purified “transoid” isomers AG2033 and AG2043, were evaluated. Table 8 below presents IC50 values (50% inhibition of phosphorylation, μM) of AG2033 and AG2043. Data presents the potencies of the compounds with respect to PDGFR, as was determined using the isolated receptor (see experimental methods section above).
Kinase reactions, using an isolated PDGFβR preparation, in the presence of 0.03-3 μM tyrphostin, were conducted, utilizing [γ-^32P]ATP as probe. Densitometric evaluation, relative to control lacking the tyrphostin inhibitor (100%), results in the percent autokinase activity, presented in Table 8 and in the dose-response curves for the purified transoid isomers AG2033 (FIG. 6) and AG2043 (FIG. 7). Further comparison between the resulting autoradiogrms for each pair of geometrical isomers AG2033 and AG2034 (upper panel); AG2043 and AG2044 (lower panel), for their inhibitory activity towards PDGF-induced PDGFβR autophosphorylation (concentration range: 0.1-10 μM) in intact cells is presented in FIG. 8. […] Similar potency relation exists between the AG2043 and AG2044 isomers.

Assay [3] concerns the target T2, KDR (Homo sapiens, UniProt P35968).
T2 construct: expressed in transfected cells; host or cells: porcine aortic endothelial cells (PAEC), stably transfected
As to the kind of experiment: KDR receptor phosphorylation in intact PAEC cells. Conditions: intact PAEC cells expressing KDR, VEGF stimulated; read-out: IC50 (50% inhibition of phosphorylation) KDR. Format: cell-based. Here is the method: as §1
The analysis of KDR receptor phosphorylation was performed as follows. Cell lysates were subjected to immunoprecipitation using the KDR specific antiserum. The precipitates were subjected to polyacrylamide (7.5%) gel electrophoresis in presence of sodium dodecyl sulfate (SDS-PAGE) and were thereafter blotted onto a nitrocellulose membrane (Hybond C-EXTRA, Amersham). Phosphorylated proteins were detected by immunoblotting using the horseradish-peroxidase conjugated phosphotyrosine antibody RC20H (Transduction Laboratories), followed by chemoluminescence-based detection (ECL, Amersham) and autoradiography.

For assay [4], the system named is human coronary artery SMC (HCASMC). Briefly: HCASMC migration (Boyden chamber). Type of assay: cell-based. Here is the method:
Human coronary artery endothelial cells (HCAEC) and human coronary artery smooth muscle cells (HCASMC) were purchased from Clonetics (Heidelberg), and grown in EBM medium (supplemented with EGM-MV SINGLE QUOTS®) or in SmBM medium (supplemented with SmGM-2 SINGLE QUOTS®), respectively (Clonetics).
Assessment of cell migration (Chemotaxis assay): The chemotactic response of HCASMC, PAEC/KDR and PAEC/PDGFR cells was assessed using the modified Boyden chamber (Neuro Probe, Inc.) and collagen-coated polycarbonate filters (Nucleopore) with pore diameters of 8 μm as previously described. Briefly, PAEC/KDR and PAEC/PDGFR cells were cultivated and assayed in Ham's F12 medium containing 10% FCS. HCASMC were cultivated in SmGM-2 (clonetics) and assayed in SmBM-WM containing 10% FCS and 0.1% BSA. To the medium in the lower part of the Boyden chamber, either VEGF or PDGF-BB (10 ng/ml, respectively) were added. AG2033 was added to both upper and lower chamber parts. Suspended cells were given 4 hours for migration, after a preincubation period of 15 minute in AG2033. The number of cells that migrated without PDGF-BB or VEGF stimulation was referred to as 100% migration (chemokinesis). The assay was performed in triplicate, and five medium-power fields were counted per well using a light microscope (Jenalab).
Further evaluation of HCASMC cells migration toward PDGD-BB, in the presence of purified “transoid” isomers, was conducted in a Boyden chamber (see experimental section, above).

The mark [5] stands for this setting: 0.03 μM tyrphostin, [γ-32P]ATP, densitometry.
The mark [6] stands for this setting: absence of PDGF-BB, read-out: IC50 of basal migratory activity of HCASMC.
The mark [7] stands for this setting: presence of PDGF-BB, read-out: IC50 of induced migratory activity of HCASMC.

PDGF β-receptor, sequence (P09619 33-1106): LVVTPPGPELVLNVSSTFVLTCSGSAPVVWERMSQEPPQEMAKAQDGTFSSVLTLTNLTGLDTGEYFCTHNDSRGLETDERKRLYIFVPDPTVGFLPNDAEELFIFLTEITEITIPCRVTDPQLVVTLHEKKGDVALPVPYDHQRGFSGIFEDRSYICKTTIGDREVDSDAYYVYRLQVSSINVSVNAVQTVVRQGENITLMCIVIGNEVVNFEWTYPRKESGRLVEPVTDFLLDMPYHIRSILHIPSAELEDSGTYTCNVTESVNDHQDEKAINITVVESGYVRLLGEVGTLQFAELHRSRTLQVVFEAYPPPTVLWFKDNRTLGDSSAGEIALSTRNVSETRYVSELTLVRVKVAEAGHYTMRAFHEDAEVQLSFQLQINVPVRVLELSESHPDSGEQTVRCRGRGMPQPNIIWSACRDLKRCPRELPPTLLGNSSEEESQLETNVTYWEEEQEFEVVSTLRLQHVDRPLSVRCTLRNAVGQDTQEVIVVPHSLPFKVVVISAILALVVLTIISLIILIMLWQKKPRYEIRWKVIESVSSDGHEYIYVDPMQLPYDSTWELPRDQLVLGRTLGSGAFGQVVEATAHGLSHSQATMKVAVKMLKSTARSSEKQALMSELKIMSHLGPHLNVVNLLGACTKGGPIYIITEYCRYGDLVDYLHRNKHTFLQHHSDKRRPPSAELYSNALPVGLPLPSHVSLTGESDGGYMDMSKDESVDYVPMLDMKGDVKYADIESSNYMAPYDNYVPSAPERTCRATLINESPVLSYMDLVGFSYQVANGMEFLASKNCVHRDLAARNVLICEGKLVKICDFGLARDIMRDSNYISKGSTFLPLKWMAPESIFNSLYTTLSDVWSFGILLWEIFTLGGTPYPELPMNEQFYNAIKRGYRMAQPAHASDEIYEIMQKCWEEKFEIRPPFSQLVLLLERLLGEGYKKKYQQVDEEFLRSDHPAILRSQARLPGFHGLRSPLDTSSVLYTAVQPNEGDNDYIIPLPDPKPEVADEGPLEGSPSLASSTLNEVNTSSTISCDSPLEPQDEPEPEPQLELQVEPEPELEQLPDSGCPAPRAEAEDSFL
T2 sequence (P35968 20-1356): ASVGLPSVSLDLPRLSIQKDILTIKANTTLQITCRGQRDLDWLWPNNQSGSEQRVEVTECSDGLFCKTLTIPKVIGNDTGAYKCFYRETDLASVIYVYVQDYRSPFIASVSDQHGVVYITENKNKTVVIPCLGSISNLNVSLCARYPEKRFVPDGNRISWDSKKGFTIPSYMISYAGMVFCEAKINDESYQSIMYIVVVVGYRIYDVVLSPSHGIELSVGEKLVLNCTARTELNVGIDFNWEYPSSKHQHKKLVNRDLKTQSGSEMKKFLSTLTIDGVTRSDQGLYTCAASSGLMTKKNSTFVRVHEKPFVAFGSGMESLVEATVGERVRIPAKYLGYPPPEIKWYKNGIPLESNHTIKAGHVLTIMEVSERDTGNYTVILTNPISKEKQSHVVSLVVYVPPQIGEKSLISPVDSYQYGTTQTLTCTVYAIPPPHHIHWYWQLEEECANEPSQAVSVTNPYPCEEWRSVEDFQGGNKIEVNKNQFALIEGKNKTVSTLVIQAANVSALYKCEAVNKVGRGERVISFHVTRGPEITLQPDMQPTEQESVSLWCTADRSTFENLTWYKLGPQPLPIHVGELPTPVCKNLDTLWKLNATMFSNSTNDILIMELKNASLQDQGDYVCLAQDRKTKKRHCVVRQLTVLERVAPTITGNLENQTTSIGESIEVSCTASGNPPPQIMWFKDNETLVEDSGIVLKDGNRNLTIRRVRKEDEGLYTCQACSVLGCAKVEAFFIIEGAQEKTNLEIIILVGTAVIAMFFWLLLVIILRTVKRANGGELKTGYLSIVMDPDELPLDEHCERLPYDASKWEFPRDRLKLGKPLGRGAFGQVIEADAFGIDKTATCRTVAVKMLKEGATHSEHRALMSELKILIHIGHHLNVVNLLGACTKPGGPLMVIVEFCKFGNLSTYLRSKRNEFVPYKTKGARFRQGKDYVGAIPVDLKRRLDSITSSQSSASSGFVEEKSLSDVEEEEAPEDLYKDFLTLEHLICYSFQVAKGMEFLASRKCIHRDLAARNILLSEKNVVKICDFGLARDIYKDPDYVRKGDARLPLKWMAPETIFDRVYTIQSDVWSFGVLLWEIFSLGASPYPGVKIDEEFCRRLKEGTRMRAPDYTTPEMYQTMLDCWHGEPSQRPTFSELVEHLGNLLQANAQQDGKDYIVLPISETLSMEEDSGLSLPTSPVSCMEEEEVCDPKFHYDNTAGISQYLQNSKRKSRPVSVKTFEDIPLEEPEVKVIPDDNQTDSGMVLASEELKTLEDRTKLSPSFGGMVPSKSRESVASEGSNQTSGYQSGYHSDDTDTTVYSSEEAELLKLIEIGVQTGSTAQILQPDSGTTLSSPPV

Consider `Cc1nc2cc3nc(-c4ccccc4)cnc3cc2n1C` [AG2033, 1,2-dimethyl-6-phenyl imidazolo[5,4-g]quinoxaline], for which the IC50 in assay [1] was 0.5 µM; in assay [2] it was 0.07 µM; in assay [3] it was more than 10 µM; in assay [4] (setting [6]), less than 10 µM; in assay [4] (setting [7]), less than 3 µM. The “% of Control (percent autokinase activity)” value is 97.9 % of Control in assay [2] (setting [5]); 37 % of Control in assay [2] (0.1 μM tyrphostin); 17.9 % of Control in assay [2] (0.3 μM tyrphostin); 13.7 % of Control in assay [2] (1 μM tyrphostin); 9.8 % of Control in assay [2] (3 μM tyrphostin).

With `Cc1nc2cc3nc(-c4cccs4)cnc3cc2n1C` [AG2043, 1,2-dimethyl-6-(2-thiophene) imidazolo[5,4-g]quinoxaline], the IC50 in assay [1] was 1 µM; in assay [2], 0.09 µM; in assay [3], 3 µM; in assay [4] (setting [6]), less than 10 µM; in assay [4] (setting [7]) it was approximately 3 µM. For the same molecule, the “% of Control (percent autokinase activity)” value in assay [2] (setting [5]) was 60.1 % of Control; in assay [2] (0.1 μM tyrphostin), 41.6 % of Control; in assay [2] (0.3 μM tyrphostin) it was 40.4 % of Control; in assay [2] (1 μM tyrphostin), 15.1 % of Control; in assay [2] (3 μM tyrphostin), 11 % of Control.
